Results from US9624209B2, “Substituted phenylureas and phenylamides as vanilloid receptor ligands” (Gruenenthal GmbH, priority 2009, dated 2017).

Biological target: T1, vanilloid receptor 1 (VR1/TRPV1 receptor) (Homo sapiens, UniProt Q8NER1)
T1 construct: expressed in transfected cells; host or cells: CHO K1 cells (ECACC), stably transfected
Test: VR1/TRPV1 receptor affinity, capsaicin stimulus (human)
Assay type: cell-based, human being
Details: for Ki: Tables 8-12, read-out: (f) Ki (human being) [nM] Cap; for inhibition at 5 µM: Tables 8-12, read-out: (f) Ki (human being) [nM] Cap: inhibition (as a percentage)

T1 sequence (Q8NER1 whole entry): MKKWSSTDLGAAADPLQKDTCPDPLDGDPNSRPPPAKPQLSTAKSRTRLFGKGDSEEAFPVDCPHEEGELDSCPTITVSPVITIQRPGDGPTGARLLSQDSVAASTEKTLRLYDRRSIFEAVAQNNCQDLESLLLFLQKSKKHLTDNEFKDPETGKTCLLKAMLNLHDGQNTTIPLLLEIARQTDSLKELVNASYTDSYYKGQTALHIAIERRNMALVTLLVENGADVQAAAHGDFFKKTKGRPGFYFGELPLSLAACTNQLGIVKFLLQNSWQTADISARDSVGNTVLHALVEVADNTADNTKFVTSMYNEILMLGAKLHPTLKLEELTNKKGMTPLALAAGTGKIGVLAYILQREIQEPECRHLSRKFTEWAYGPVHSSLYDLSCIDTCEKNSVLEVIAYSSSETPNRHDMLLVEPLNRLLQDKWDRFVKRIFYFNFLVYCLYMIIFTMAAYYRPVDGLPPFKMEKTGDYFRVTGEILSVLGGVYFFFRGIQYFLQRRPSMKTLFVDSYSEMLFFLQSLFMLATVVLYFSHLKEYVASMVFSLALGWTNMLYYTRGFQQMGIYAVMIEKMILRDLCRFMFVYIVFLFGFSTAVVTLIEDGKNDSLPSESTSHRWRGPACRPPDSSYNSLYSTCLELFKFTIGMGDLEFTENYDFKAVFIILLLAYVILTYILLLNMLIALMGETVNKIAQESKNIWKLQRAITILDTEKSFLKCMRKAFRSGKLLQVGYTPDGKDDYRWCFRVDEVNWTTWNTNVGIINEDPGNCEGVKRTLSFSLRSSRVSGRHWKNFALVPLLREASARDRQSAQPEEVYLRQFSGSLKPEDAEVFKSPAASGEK

| SMILES | Ki [nM] | inhibition at 5 µM [%] |
| --- | --- | --- |
| CS(=O)(=O)NCc1ccc(CC(=O)NCc2cc(C(F)(F)F)nn2-c2cccc(Cl)c2)cc1F [Example B23, N-[[2-(3-Chlorophenyl)-5-(trifluoromethyl)-2H-pyrazol-3-yl]-methyl]-2-[3-fluoro-4-(methanesulfonamido-methyl)-phenyl]-acetamide] | 13 | – |
| CC(C)(C)c1cc(CNC(=O)Cc2ccc(CNS(C)(=O)=O)c(F)c2)n(-c2cccc(Cl)c2)n1 [Example B26, N-[[5-tert-Butyl-2-(3-chlorophenyl)-2H-pyrazol-3-yl]-methyl]-2-[3-fluoro-4-(methanesulfonamido-methyl)-phenyl]-acetamide] | 12 | – |
| CS(=O)(=O)NCc1c(F)cc(NC(=O)NCc2cc(C(F)(F)F)nn2-c2cccc(Cl)c2)cc1F [Example B27, 1-[[2-(3-Chlorophenyl)-5-(trifluoromethyl)-2H-pyrazol-3-yl]-methyl]-3-[3,5-difluoro-4-(methanesulfonamido-methyl)-phenyl]-urea] | 8 | – |
| CC(C)(C)c1cc(CNC(=O)Nc2ccc(CNS(C)(=O)=O)cc2)n(-c2cccc(Cl)c2)n1 [Example B28, 1-[[5-tert-Butyl-2-(3-chlorophenyl)-2H-pyrazol-3-yl]-methyl]-3-[4-(methanesulfonamido-methyl)-phenyl]-urea] | 11 | – |
| CC(C(=O)NCc1cc(C(F)(F)F)nn1-c1cccc(Cl)c1)c1ccc(CN(C)S(C)(=O)=O)c(F)c1 (centres unmarked) [Example B29, N-[[2-(3-Chlorophenyl)-5-(trifluoromethyl)-2H-pyrazol-3-yl]-methyl]-2-[3-fluoro-4-[(methyl-methylsulfonyl-amino)-methyl]-phenyl]-propionamide] | 59 | – |
| CC(C(=O)NCc1cc(C(C)(C)C)nn1-c1cccc(Cl)c1)c1ccc(CN(C)S(C)(=O)=O)c(F)c1 (centres unmarked) [Example B30, N-[[5-tert-Butyl-2-(3-chlorophenyl)-2H-pyrazol-3-yl]-methyl]-2-[3-fluoro-4-[(methyl-methylsulfonyl-amino)-methyl]-phenyl]-propionamide] | 39 | – |
| NS(=O)(=O)NCc1ccc(NC(=O)NCc2cc(C(F)(F)F)nn2-c2cccc(Cl)c2)cc1 [Example B35, 1-[[2-(3-Chlorophenyl)-5-(trifluoromethyl)-2H-pyrazol-3-yl]-methyl]-3-[4-[(sulfamoylamino)-methyl]-phenyl]-urea] | 9 | – |
| CC(C)(C)c1cc(CNC(=O)Nc2ccc(CNS(N)(=O)=O)cc2)n(-c2cccc(Cl)c2)n1 [Example B36, 1-[[5-tert-Butyl-2-(3-chlorophenyl)-2H-pyrazol-3-yl]-methyl]-3-[4-[(sulfamoylamino)-methyl]-phenyl]-urea] | 6 | – |
| NCc1ccc(NC(=O)NCc2cc(C(F)(F)F)nn2-c2cccc(Cl)c2)cc1F [Example B39, 1-[4-(Aminomethyl)-3-fluoro-phenyl]-3-[[2-(3-chlorophenyl)-5-(trifluoromethyl)-2H-pyrazol-3-yl]-methyl]-urea] | – | 37 |
| CS(=O)(=O)NCc1ccc(NC(=O)NCc2cc(C(F)(F)F)nn2-c2cccc(F)c2)cc1 [Example B44, 1-[[2-(3-Fluorophenyl)-5-(trifluoromethyl)-2H-pyrazol-3-yl]-methyl]-3-[4-(methanesulfonamido-methyl)-phenyl]-urea] | 44 | – |
| CS(=O)(=O)NCc1ccc(NC(=O)NCc2cc(C(F)(F)F)nn2-c2cccc(F)c2)cc1F [Example B48, 1-[3-Fluoro-4-(methanesulfonamido-methyl)-phenyl]-3-[[2-(3-fluorophenyl)-5-(trifluoromethyl)-2H-pyrazol-3-yl]-methyl]-urea] | 40 | – |

Results, then the molecule that gave them:

| Ki [nM] | inhibition at 5 µM [%] | SMILES |
| --- | --- | --- |
| 55 | – | CCNCc1ccc(NC(=O)NCc2cc(C(F)(F)F)nn2-c2cccc(Cl)c2)cc1F [Example B24, 1-[[2-(3-Chlorophenyl)-5-(trifluoromethyl)-2H-pyrazol-3-yl]-methyl]-3-[4-(ethylamino-methyl)-3-fluoro-phenyl]-urea] |
| 45 | – | CCNCc1ccc(NC(=O)NCc2cc(C(C)(C)C)nn2-c2cccc(Cl)c2)cc1F [Example B25, 1-[[5-tert-Butyl-2-(3-chlorophenyl)-2H-pyrazol-3-yl]-methyl]-3-[4-(ethylamino-methyl)-3-fluoro-phenyl]-urea] |
| 9 | – | CC(C)(C)c1cc(CNC(=O)Nc2ccc(CNS(C)(=O)=O)c(F)c2)n(-c2cccc(Cl)c2)n1 [Example B31, 1-[[5-tert-Butyl-2-(3-chlorophenyl)-2H-pyrazol-3-yl]-methyl]-3-[3-fluoro-4-(methanesulfonamido-methyl)-phenyl]-urea] |
| 2 | – | CC(C)(C)c1cc(CNC(=O)Nc2cc(F)c(CNS(C)(=O)=O)c(F)c2)n(-c2cccc(Cl)c2)n1 [Example B32, 1-[[5-tert-Butyl-2-(3-chlorophenyl)-2H-pyrazol-3-yl]-methyl]-3-[3,5-difluoro-4-(methanesulfonamido-methyl)-phenyl]-urea] |
| 46 | – | CS(=O)(=O)NCc1ccc(CC(=O)NCc2cc(C(F)(F)F)nn2-c2cccc(F)c2)cc1F [Example B37, 2-[3-Fluoro-4-(methanesulfonamido-methyl)-phenyl]-N-[[2-(3-fluorophenyl)-5-(trifluoromethyl)-2H-pyrazol-3-yl]-methyl]-acetamide] |
| – | 18 | CN(C)Cc1ccc(NC(=O)NCc2cc(C(F)(F)F)nn2-c2cccc(Cl)c2)cc1F [Example B38, 1-[[2-(3-Chlorophenyl)-5-(trifluoromethyl)-2H-pyrazol-3-yl]-methyl]-3-[4-(dimethylaminomethyl)-3-fluoro-phenyl]-urea] |
| 92 | – | CC(C)(C)c1cc(CNC(=O)Nc2ccc(CN)c(F)c2)n(-c2cccc(Cl)c2)n1 [Example B40, 1-[4-(Aminomethyl)-3-fluoro-phenyl]-3-[[5-tert-butyl-2-(3-chlorophenyl)-2H-pyrazol-3-yl]-methyl]-urea] |
| 74 | – | NS(=O)(=O)NCc1ccc(NC(=O)NCc2cc(C(F)(F)F)nn2-c2cccc(Cl)c2)cc1F [Example B41, 1-[[2-(3-Chlorophenyl)-5-(trifluoromethyl)-2H-pyrazol-3-yl]methyl]-3-[3-fluoro-4-[(sulfamoylamino)-methyl]-phenyl]-urea] |
| 46 | – | CC(C(=O)NCc1cc(C(F)(F)F)nn1-c1cccc(Cl)c1)c1ccc(CN)c(F)c1 (centres unmarked) [Example B42, 2-[4-(Aminomethyl)-3-fluoro-phenyl]-N-[[2-(3-chlorophenyl)-5-(trifluoromethyl)-2H-pyrazol-3-yl]-methyl]-propionamide] |
| 1 | – | CC(C(=O)NCc1cc(C(C)(C)C)nn1-c1cccc(C(F)(F)F)c1)c1ccc(CNS(C)(=O)=O)c(F)c1 (centres unmarked) [Example B43, N-[[5-tert-Butyl-2-[3-(trifluoromethyl)phenyl]-2H-pyrazol-3-yl]-methyl]-2-[3-fluoro-4-(methanesulfonamido-methyl)-phenyl]-propionamide] |
| 31 | – | CC(C)(C)c1cc(CNC(=O)Nc2ccc(CNS(C)(=O)=O)cc2)n(-c2cccc(F)c2)n1 [Example B45, 1-[[5-tert-Butyl-2-(3-fluorophenyl)-2H-pyrazol-3-yl]-methyl]-3-[4-(methanesulfonamido-methyl)-phenyl]-urea] |
| 9 | – | CC(C)(C)c1cc(CNC(=O)Nc2ccc(CNS(N)(=O)=O)c(F)c2)n(-c2cccc(Cl)c2)n1 [Example B46, 1-[[5-tert-Butyl-2-(3-chlorophenyl)-2H-pyrazol-3-yl]-methyl]-3-[3-fluoro-4-[(sulfamoylamino)-methyl]-phenyl]-urea] |
